The values that follow come from patent US20150126603A1, “TREATMENT OF POULTRY, PIGS OR FISH FOR REDUCING THE FEED CONVERSION RATIO OR INCREASING THEIR BODYWEIGHT GAIN” (TAMINCO, priority 2012, published 2015).

Structures are written as SMILES. Like-named read-outs stand apart in the source and are kept apart here.

Series [1] has as its system Japanese flounders. The settings on record: 8.9 g/kg of β-alanine in diet; cited from earlier work.
Series [2] deals with pigs. How it is done:
At 9 weeks of age, 48 pigs (24 gilts and 24 chirurgical castrated barrows) were divided randomly into groups of four pigs of the same gender. Each group was housed in a separate pen resulting in six pens of four gilts and six pens of four barrows. All pigs were fed the same commercial diet and for three of the six pens of gilts and three of the six pens of barrows their diet was supplemented with 500 mg β-alanine per kg (=568 mg or 6.4 mmol β-alanine per kg dry weight). Water was freely available and the animals were fed ad libitum. After 6 weeks (age of 15 weeks) all animals were euthanized by natrium-pentobarbital.

For series [3], the system named is Ross 308 chickens. How it is done: A group of 252 Ross 308 chickens were randomly distributed over 14 pens with 18 animals each. All chickens were previously housed in identical conditions, and fed the same diet as the control group in the trial. Every other pen was attributed to either a control diet or that control diet supplemented with 500 mg β-alanine per kg (=595 mg or 6.7 mmol β-alanine per kg dry weight). Water was freely available from drinking cups, and animals were fed ad libitum. The control diet was a commercial broiler diet (Vanden Avenne, Braadkip 114 MB) with 4% corn oil added to increase the level of oxidative stress, as used in earlier studies (Kalmar et al., 2011).
From the age of 24 days to the age of 48 days, the change in bodyweight was measured per bird, but pooled per pen as the experimental unit. At 42 days of age, one male bird per pen was euthanized by intravenous injection of sodium pentobarbital. From the breast and thigh muscle, a sample was dissected and stored airtight at −20° C. until analysis. The breast muscle sample was taken at about one third from the distal end of the breast.

Series [4] deals with chickens. Conditions: 22 mmol/kg bodyweight orally twice a day for five days; cited from earlier work.
The subject of series [5] is pigs. The settings on record: cited from earlier work.
For series [6], the system named is broiler chickens. Conditions: cited from earlier work.
Series [7] relates to carps. As to the method:
A group of 24 carps were distributed over 12 aquaria with 2 fish each. All fish were previously housed in identical conditions, and fed the same diet as the control group in the trial. Every other aquarium was attributed to either a control diet or that control diet supplemented with 500 mg β-alanine per kg. Feeding was done at 1.5% of the body weight, during 2 feeding times/day. To increase the level of oxidative stress, the carps were kept at 27° C. (4° C. above the advised temperature).
The change in bodyweight after the 14 day feeding experiment was measured per fish, but pooled per aquarium as the experimental unit.

The test system of series [8] is broiler chickens. Conditions: 0.5% of carnosine in broiler feed; cited from earlier work.
The mark [9] stands for this setting: 500 mg/kg beta-alanine in diet, between 24 and 42 days of age.
Where [10] appears, read: 0.225% of β-alanine in pig diet.
Where [11] appears, read: β-alanine in combination with histidine.
[12] abbreviates: 0.5% of β-alanine in feed for 4 weeks.
Setting [13] is: 1 and 2% of β-alanine in feed for 4 weeks.
The mark [14] stands for this setting: 500 mg/kg beta-alanine in diet, 14 days.
[15] abbreviates: 500 mg/kg beta-alanine in diet, 14 days, 27° C.

For `NCCC(=O)O` [Beta-alanine, β-alanine], the bodyweight gain result in series [1] was “increased somewhat but not significantly”; in series [4] it was “also decreased”; in series [5] (setting [10]) it was “decreased somewhat”; in series [5] (setting [11]), “decreased even more”; in series [6] (setting [12]), “no significant changes”; in series [6] (setting [13]) it was “decreased significantly”. Moreover, the feed conversion ratio entry is reported as “increased significantly” in series [1]; “decreased” in series [4]; “decreased somewhat” in series [5] (setting [10]); “increased to become higher than the control” in series [5] (setting [11]); “no significant changes” in series [6] (setting [12]); “increased” in series [6] (setting [13]). In addition, the feed conversion ratio in series [7] (setting [14]) was 2.7 g:g. In series [2] (500 mg/kg beta-alanine in diet, 9 to 15 weeks of age), the “Bodyweight gain over 6 weeks” value amounted to 25.4. The Final bodyweight in series [2] (500 mg/kg beta-alanine in diet, 15 weeks of age) amounted to 44.1 kg; in series [3] (setting [9]), 2.874 kg; in series [7] (setting [15]), 230.1 g. The results for the “bodyweight at slaughter vs control” value in series [2] (500 mg/kg β-alanine in diet) and in series [3] (500 mg/kg β-alanine in diet) were “tend to have a higher bodyweight at slaughter” and “tended to have a higher bodyweight at slaughter”, respectively. Also, the “bodyweight gain vs control” value in series [2] (500 mg/kg β-alanine in diet) and in series [3] (500 mg/kg β-alanine in diet) was “tended to have a higher bodyweight gain” in each case. For the same compound, the “overall growth of the piglets” value in series [2] (500 mg/kg β-alanine in diet) is given as “increases the overall growth”. For the same compound, the “death or illness during the trial” value in series [2] (500 mg/kg β-alanine in diet, 6 weeks) is “No animals died or became ill”. Moreover, the Initial bodyweight is reported as 18.7 kg in series [2] (baseline at 9 weeks of age, 500 mg/kg group); 1.362 kg in series [3] (baseline at 24 days of age, 500 mg/kg group); 211.1 g in series [7] (baseline, 500 mg/kg group). The Average daily gain in series [3] (setting [9]) was 108 g. Also, the feed consumption entry in series [4] is given as “also decreased”. In series [7] (setting [14]), this compound registered an Average feed intake of 44.1 g. This compound had an Average weight gain in series [7] (setting [15]) of 19.0 g.
For the compound `NCCC(=O)N[C@@H](Cc1c[nH]cn1)C(=O)O` [carnosine, β-alanyl-L-histidine], in series [8], the “chicken meat quantity and quality” value is recorded as “improve”; the feed conversion ratio result is given as “improved but not statistically significantly”; the weight gain entry is listed as “improved but not statistically significantly”.
